Patent US4283394A, “Cytotoxic nucleoside-corticosteroid phosphodiesters” (priority 1979, dated 1981)

Key:
[1] = system: phosphodiesterase I from Crotalus adamenteus; experiment: Enzymatic cleavage of the phosphodiester bond by phosphodiesterase I; assay type: in vitro ADME; conditions: pH 8.8, 24 h, 37° C.; for hydrolysis by phosphodiesterase I: 5 μmol conjugate, 1.5 mg enzyme
Description: (§1) Enzymatic cleavage of the phosphodiester bond of the conjugates was studied by incubating the conjugates (5 μmol) with various enzymes (1.5-3 mg) in appropriate buffer and with plasma (final volume 0.5 ml). An aliquot (200 μl) of the 24 h incubation mixtures was streaked on Whatman 3 MM paper (23×57 cm) with the authentic markers and the paper was developed in Solvent A. The bands were characterized and analyzed semi-quantitatively by UV estimation of the chromatographs. […] The conjugates also remained 60-85 percent intact during the incubation with baboon plasma at 37° C. for 24 h. From the results of these tests, conjugates of this type appear capable of serving as sustained release froms of the parent steroid and nucleoside components thereof.
The conjugate (5 μmol) was incubated with 1 M Tris-HCl, pH 8.8 (0.05 ml) and purified phosphodiesterase I from Crotalus adamenteus (1.5 mg., Sigma Chemical Co.) in 0.45 ml. of H2 O for 24 h at 37° C.

[2] = system: 5'-nucleotidase from Crotalus adamenteus; experiment: Enzymatic cleavage by 5'-nucleotidase; assay type: in vitro ADME; conditions: pH 9.0, 24 h, 37° C.; for hydrolysis by 5'-nucleotidase: 2 mg enzyme
Description: as §1
The conjugate (5 μmol) was incubated with 1 M Tris-HCl, pH 9.0 and 0.05 M MgSO4 (0.05 ml) and purified 5'-nucleotidase from Crotalus adamenteus (2 mg., Sigma Chemical Co.) in 0.45 ml. of H2 O for 24 h at 37° C.

[3] = system: crude wheat germ acid phosphatase; experiment: Enzymatic cleavage by acid phosphatase; assay type: in vitro ADME; conditions: pH 4.8, 25° C., 24 h; for percent hydrolyzed by acid phosphatase: 3 mg enzyme
Description: as §1
The conjugate (5 μmol) was incubated with 0.15 M NaOAc, pH 4.8 (0.05 ml) and crude wheat germ acid phosphatase (3 mg., Sigma Chemical Co.) in 0.45 ml. of H2 O at 25° C. for 24 h. Pred-p-ara-C (I) was 86 percent hydrolyzed, the products being pred-p-ara-C (8 percent), ara-CMP (5 percent), ara-C (42 percent) and prednisolone (45 percent). Prednisone-p-ara-C (II) was 88 percent hydrolyzed, the products being prednisone-p-ara-C (7 percent), ara-CMP (4 percent), ara-C (43 percent) and prednisone (46 percent).

[4] = Incubation with fresh baboon plasma; assay type: in vitro ADME; conditions: 37° C.; for metabolised at 24 h: 0.5 ml fresh baboon plasma, read-out: percent hydrolyzed in plasma; for remaining at 24 h: read-out: remaining conjugate among products
Description: as §1
The conjugate (5 μmol) was incubated with 0.5 ml of fresh baboon plasma at 37° C. for 24 h. 39 percent of the pred-p-ara-C (I) was hydrolyzed, the products being pred-p-ara-C (44 percent), ara-UMP (7 percent), ara-U (21 percent) and prednisolone (28 percent). Only 15 percent of the prednisone-p-ara-C (II) was hydrolyzed, the products being prednisone-p-ara-C (74 percent), ara-UMP (13 percent) and prednisone (13 percent).

[5] = system: mouse leukemia L-1210 cells; experiment: Antiproliferative activity in vitro, viability of L-1210 cells in culture; assay type: cell-based; conditions: for antiproliferative activity compared with ara-CMP and ara-C: 72 h; for IC50: Mus musculus, L1210, 72 h, read-out: Concentration (μM) for 50 percent loss of viability at 72 hours (ED50)
Description: The antiproliferative activity of the conjugates, ara-C, ara-CMP and the steroids was determined by measuring their effects against mouse leukemia L-1210 cells in culture. The assay was performed in test tubes without agitation according to the procedure described by Hong et al. in J. Med. Chem. 16: 139 (1973). After 24, 48 and 72 h, viable cell counts were performed on the cultures which had been incubated with compounds in various concentrations and the concentration of each compound required to produce a 50 percent inhibition of growth (ED50) after 72 h was determined by interpolation using the method described by Tritsch et al. in Cancer Biochem. Biophys. 2: 87 (1977).

[6] = system: i.p. implanted L-1210 leukemia; experiment: Antitumor activity against i.p. implanted L-1210 leukemia in mice; assay type: in vivo; conditions: for response vs control in vivo at 25 mg/kg: read-out: Percent T/C (mean survival days treated/control × 100), 25 mg/kg/day × 5 i.p.; for response vs control in vivo at 50 mg/kg: read-out: Percent T/C (mean survival days treated/control × 100), 50 mg/kg/day × 5 i.p.; for response vs control in vivo at 75 mg/kg: read-out: Percent T/C (mean survival days treated/control × 100), 75 mg/kg/day × 5 i.p.; for response vs control in vivo at 100 mg/kg: read-out: Percent T/C (mean survival days treated/control × 100), 100 mg/kg/day × 5 i.p.; for ascitic fluid at the end of the dosage period (5th day) / day on which mice started to accumulate ascitic fluid: doses between 25 and 75 mg/kg/day
Description: The ascites cell form of L-1210 leukemia, grown in C3 D2 F1 /J female mice (supplied by Jackson Labs) were employed. The assay was performed according to National Cancer Institute (NCI) protocol 1.100 described by R. I. Gerau et al., Cancer Chemother. Rep. (Part 3) 3: (2): 7, 47 (1972) with a slight modification. Intraperitoneal implantation of 1×10^6 cells in 0.5-ml suspension to the control and the treated groups (each group comprised 8 C3 D2 F1 /J female mice, average wt 20 g) was carried out using donor mice (DBA/2Ha, supplied by Roswell Park Memorial Institute) bearing 3 day tumor growths. Compounds were dissolved in 0.9 percent NaCl and a 0.5 ml dose was administered intraperitoneally once daily. Treatment began 24 h after implantation and continued for 5 consecutive days. Control animals received a 0.5 ml injection of saline. Testing was followed as described in the NCI protocol and evaluated by recording the survival time according to the formula appearing in protocol 11.

[7] = system: i.p. implanted L1210 leukemia; experiment: Comparison of conjugates and ara-C plus steroid combinations, i.p. implanted L1210 leukemic mice; assay type: in vivo
Description: Each mouse received 1×10^6 cells intraperitoneally. Doses were administered i.p. once daily to groups of 8 mice (avg. wt. 20 g) for 5 consecutive days beginning 24 hours after tumor implantation. In case of the combination, ara-C and the steroid were given at the same molar concentrations present in the conjugates. Mean survival days were calculated by the equation appearing in the NCI protocol; T/C ratios are reported in percent, i.e (treated/control)×100.

SMILES	hydrolysis by phosphodiesterase I [1]	product ara-C [1]	product ara-CMP [1]	product prednisolone or prednisone [1]	hydrolysis by 5'-nucleotidase [2]	product ara-C [2]	product prednisolone or prednisone [2]	percent hydrolyzed by acid phosphatase [3]	product ara-C [3]	product ara-CMP [3]	product steroid (prednisolone or prednisone) [3]	remaining conjugate among products [3]	metabolised at 24 h [4]	product ara-UMP ([4]; baboon plasma, 24 h)	product steroid (prednisolone or prednisone) ([4]; baboon plasma, 24 h)	remaining at 24 h ([4]; baboon plasma)	antiproliferative activity compared with ara-CMP and ara-C [5]	IC50 [5]	Mean Survival Days, Treated ([6]; 25 mg/kg/day × 5 i.p.)	Percent T/C (mean survival days treated/control × 100) ([6]; 25 mg/kg/day × 5 i.p.)	also measured
C[C@]12C=CC(=O)C=C1CC[C@@H]1[C@@H]2[C@@H](O)C[C@@]2(C)[C@H]1CC[C@]2(O)C(=O)CO[P+]([O-])(O)OC[C@H]1O[C@@H](n2ccc(N)nc2=O)[C@@H](O)[C@@H]1O (stereo partly drawn) [Pred-p-ara-C (I), 5'-(Prednisolone-21-phosphoryl)-1-β-D-arabinofuranosylcytosine]	hydrolyzed completely	10%	40%	50%	hydrolyzed completely	50%	50%	86%	42%	5%	45%	8%	39%	7%	28%	44%	activity comparable to ara-CMP	0.05 µM	14.63 days	154%	product ara-U ([4]; baboon plasma, 24 h): 21%; Mean Survival Days, Treated ([6]; 40 mg/kg/day × 5 i.p.): 15.25 days; Mean Survival Days, Treated ([6]; 50 mg/kg/day × 5 i.p.): 19.13 days; Mean Survival Days, Treated ([6]; 75 mg/kg/day × 5 i.p.): 16.88 days; Mean Survival Days, Treated ([6]; 100 mg/kg/day × 5 i.p.): 11.74 days; response vs control in vivo at 25 mg/kg ([6]; Mus musculus, L1210, ip): 154%; response vs control in vivo at 40 mg/kg ([6]; Mus musculus, L1210, ip, read-out: Percent T/C (mean survival days treated/control × 100), 40 mg/kg/day × 5 i.p.): 174%; response vs control in vivo at 50 mg/kg ([6]; Mus musculus, L1210, ip): 201%; response vs control in vivo at 75 mg/kg ([6]; Mus musculus, L1210, ip): 178%; response vs control in vivo at 100 mg/kg ([6]; Mus musculus, L1210, ip): 136%; ascitic fluid at the end of the dosage period (5th day) [6]: no ascitic fluid; day on which mice started to accumulate ascitic fluid [6]: 15 days; Survival Days Mean (Treated) ([7]; 75.0 μmole/kg/day × 5): 19.13 days; Weight change on Day 8 (g/mouse) ([7]; 75.0 μmole/kg/day × 5 (each, for combinations)): -0.28 g/mouse; T/C ([7]; 114.7 μmol/kg/day): 178%; response vs control in vivo at 75 µmol/kg ([7]; Mus musculus, L1210, ip, 75.0 μmole/kg/day × 5, read-out: % T/C): 201%
C[C@]12C=CC(=O)C=C1CC[C@@H]1[C@@H]2C(=O)C[C@@]2(C)[C@H]1CC[C@]2(O)C(=O)CO[P+]([O-])(O)OC[C@H]1O[C@@H](n2ccc(N)nc2=O)[C@@H](O)[C@@H]1O (stereo partly drawn) [Prednisone-p-ara-C (II), 5'-(Prednisone-21-phosphoryl)-1-β-D-arabinofuranosylcytosine]	hydrolyzed completely	10%	40%	50%	hydrolyzed completely	50%	50%	88%	43%	4%	46%	7%	15%	13%	13%	74%	less active than both ara-CMP and ara-C	0.5 µM	14.63 days	154%	Mean Survival Days, Treated ([6]; 50 mg/kg/day × 5 i.p.): 18.13 days; Percent T/C (mean survival days treated/control × 100) ([6]; 50 mg/kg/day × 5 i.p.): 210%; Mean Survival Days, Treated ([6]; 75 mg/kg/day × 5 i.p.): 14.50 days; Mean Survival Days, Treated ([6]; 100 mg/kg/day × 5 i.p.): 10.88 days; Percent T/C (mean survival days treated/control × 100) ([6]; 100 mg/kg/day × 5 i.p.): 124%; Mean Survival Days, Treated ([6]; 200 mg/kg/day × 5 i.p.): 9.13 days; response vs control in vivo at 25 mg/kg ([6]; Mus musculus, L1210, ip): 154%; response vs control in vivo at 50 mg/kg ([6]; Mus musculus, L1210, ip): 210%; response vs control in vivo at 75 mg/kg ([6]; Mus musculus, L1210, ip): 153%; response vs control in vivo at 100 mg/kg ([6]; Mus musculus, L1210, ip): 124%; response vs control in vivo at 200 mg/kg ([6]; Mus musculus, L1210, ip, read-out: Percent T/C (mean survival days treated/control × 100), 200 mg/kg/day × 5 i.p.): 104%; ascitic fluid at the end of the dosage period (5th day) [6]: no ascitic fluid; day on which mice started to accumulate ascitic fluid [6]: 15 days; Survival Days Mean (Treated) ([7]; 75.4 μmole/kg/day × 5): 18.13 days; Weight change on Day 8 (g/mouse) ([7]; 75.4 μmole/kg/day × 5): -0.30 g/mouse; response vs control in vivo at 75.4 µmol/kg ([7]; Mus musculus, L1210, ip, 75.4 μmole/kg/day × 5, read-out: % T/C): 210%
